Values joined by “and” are separate entries in the source; they are usually repeats but may differ in a detail not shown here. Identical values can stand only once. Peptide text beside a SMILES is read from it.
Experiments:
C57BL/6 mice = experiment: Ear pinna injury, ear punch closure; format: in vivo, mouse
Experimental: Experiments were performed on 8–12 week-old female BALB/c (24 mice in total) and C57BL/6 mice (36 mice in total). All mice originated from the Centre for Experimental Medicine of the Medical University of Białystok, Poland, and were kept in the animal facility at the Nencki Institute of Experimental Biology throughout the course of the study. After delivery to the Nencki Institute animal facility, mice rested for at least two weeks for acclimatization before starting the experiment. Experiments were approved by the First Local Ethics Committee in Warsaw (permit No. 491/2013 and 542/2018). Animal experimentation was performed in accordance with EU directive 2010/63/EU, and all experiments were undertaken in such a way as to minimize discomfort and the number of animals used in the study.
Mice were placed individually in separate cages, weighed, and randomly divided into two groups within each mouse strain: The treatment group and the control group. Before the study all mice were randomly given numerical equivalents, and all experimenters performing further analysis were not aware of the experimental group and referred solely to those numbers. Similarly, vials containing IM (treatment) or saline (control) were encrypted and assigned to particular mice, so the person performing injections and ear photographs was not aware of mice background. Lastly, the person quantifying each ear hole closure was not aware of the group. Numerical equivalents of each mice were only decrypted at the end of the study. […]
To monitor the progress of wound healing, ears were photographed on the day of the injury (day 0, before and right after pinna injury), and on days 7, 14, 21, 28, 35, and 42. […] Finally, the area of the wound hole was outlined by hand on digitized images as an overlay, and the hole areas in the ears were evaluated using computer-assisted image analysis (ImageJ Software). […] The final number of analyzed ears was 23 per group on day 42. […] The final number of analyzed ears on day 42 was 32 in the control group and 16 in the treatment group.

bovine albumin = bovine albumin (Bos taurus, UniProt P02769); experiment: Affinity test on albumin-Sepharose column; format: binding; details: ammonium hydrogen carbonate pH 7.4, 2 h, 25 °C, elution 0.1% TFA, ESI-IT-TOF MS of fractions
bovine albumin, sequence (P02769 25-607): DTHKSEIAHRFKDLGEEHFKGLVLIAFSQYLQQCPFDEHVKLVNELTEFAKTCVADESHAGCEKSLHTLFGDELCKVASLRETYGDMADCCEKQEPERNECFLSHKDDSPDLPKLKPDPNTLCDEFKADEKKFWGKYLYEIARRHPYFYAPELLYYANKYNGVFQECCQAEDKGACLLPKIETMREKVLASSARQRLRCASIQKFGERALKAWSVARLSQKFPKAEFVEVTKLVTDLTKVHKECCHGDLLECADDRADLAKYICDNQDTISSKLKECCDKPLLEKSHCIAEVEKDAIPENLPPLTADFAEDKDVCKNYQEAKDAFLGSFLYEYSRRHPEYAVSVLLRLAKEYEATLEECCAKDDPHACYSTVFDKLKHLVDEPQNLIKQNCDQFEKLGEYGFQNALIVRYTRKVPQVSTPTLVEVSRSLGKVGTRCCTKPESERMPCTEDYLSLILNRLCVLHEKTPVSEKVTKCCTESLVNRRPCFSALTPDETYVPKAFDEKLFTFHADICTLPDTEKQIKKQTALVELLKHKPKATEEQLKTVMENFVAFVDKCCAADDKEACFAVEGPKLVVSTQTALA
Experimental: Immobilization of protein in a microcolumn, and affinity tests, were performed as described previously by Spodzieja et al.. The IM peptide was added onto an albumin-Sepharose column equilibrated in ammonium hydrogen carbonate, pH 7.4, and incubated for 2 h at 25 °C with gentle shaking. After 2 h, the column was washed with 100 mL of ammonium hydrogen carbonate, collecting the first and last milliliter of the solution (supernatant and last wash fraction). The albumin-peptide complex was dissociated by incubation for 15 min in 0.1% TFA, with gentle shaking. The procedure was repeated twice, and the elution fraction was collected each time. All fractions were lyophilized and analyzed by mass spectrometry (ESI-IT-TOF, Kyoto, Shimadzu Japan).

[1] = test system: human lymphocyte cultures; details: cited from earlier work
Source text: Peptides play an important role in immunology, often through being epitopes for adaptive immune systems. Besides, they take part in mobilizing immune cells. […] Unfortunately, application of synthetic peptides can lead to unwanted immune activation or allergies and immunogenicity or immune-related adverse effects can limit the effectiveness of peptide-based therapies [[35],[36],[37 ...

ASCs = experiment: Migration assay, ibidi culture inserts; format: cell-based, human; details: 0.1 µg/mL, 24 h; n=16
Experimental: (§1) The effect of IM on cell migration after 24 h was determined using ibidi culture inserts (ibidi, Cat. No. 81176, Gräfelfing, Germany). Cells were seeded in culture inserts, at a density of 30,000 per well, in appropriate medium supplemented with 10% FBS, which was changed to serum-free DMEM after 24 h. Mitomycin C (5 μg/mL) was added for 2 h to block cell proliferation. The medium was then changed, again, and cells were stimulated with an appropriate concentration of IM. After 24 h the cells were fixed with 3.7% paraformaldehyde, stained with 0.05% crystal violet, and the effect was measured with a phase-contrast fluorescent microscope (Zeiss, Oberkochen, Germany) and the surface areas were counted with Imaging Software NIS-Element Basic Research program.

HaCaT keratinocytes [2] = experiment: Migration assay, ibidi culture inserts; format: cell-based, human; details: 0.1 and 1 µg/mL, 24 h, mitomycin C pre-treatment, serum-free; n=12 (Figure S7A)
Experimental: as §1

skin cells = experiment: Migration assay, ibidi culture inserts; format: cell-based, human; details: 0.1 and 1 µg/mL, 24 h
Experimental: as §1

HaCaT keratinocytes [3] = experiment: Chemotaxis assay, ThinCert inserts; format: cell-based, human; details: 0.1 and 1 µg/mL, 24 h, serum-free; n=12 (Figure S7B)
Experimental: The effect of IM on cell chemotaxis was assessed with ThinCert cell culture inserts (8 μm, Greiner Bio-One, Kremsmünster, Austria). Cells were starved overnight in serum-free high-glucose DMEM and then seeded on inserts placed in a 24-well plate, at a density of 100,000 cells, in serum-free medium. Culture medium with appropriate concentrations of IM was then added to the wells of the plate and incubated for 24 h. The cells were stained with 8 μM Calcein-AM (BD Pharmingen), then migratory cells were detached with typsin-EDTA (Sigma-Aldrich, St. Louis, MO, USA). Detached cells were transferred to another plate and read with a fluorescence plate reader at an excitation wavelength of 485 nm and an emission wavelength of 520 nm.

SMILES: CC(C)[C@H](NC(=O)[C@H](CCCCN)NC(=O)[C@H](CC(=O)O)NC(=O)[C@@H](N)CCCNC(=N)N)C(=O)N[C@@H](Cc1ccc(O)cc1)C(=O)N[C@@H](CCCNC(=N)N)C(=O)O [IM, H-Arg-Asp-Lys-Val-Tyr-Arg-OH] (H-RDKVYR-OH)
- mean ear hole area (C57BL/6 mice; C57BL/6, day 42 post-injury, 2 mm punch, s.c. 5.0 µg/g, 10 injections, mean ± SD, saline control 3.10 ± 0.74): 1.67 ± 0.45 mm^2
- ear hole closure (C57BL/6 mice; C57BL/6, day 42 post-injury, s.c. 5.0 µg/g, 10 injections, mean ± SD, saline control 8.0% ± 36.8%): 43.6% ± 13.9% and 44%
- tissue repair in comparison to control (C57BL/6 mice; C57BL/6, ear pinna injury, as summarised in the abstract): 36%
- interaction with albumin (bovine albumin): interacted with bovine albumin
- synthesis of IgE [1]: suppress the synthesis
- production of IgM, IgG, and IgA ([1]; following stimulation with pokeweed mitogen): increase the production
- promigratory effect compared to the control (ASCs): 10–15%
- inhibition of migration compared to the control (HaCaT keratinocytes [2]): 5–10%
- stimulation of migration of skin cells (skin cells): does not stimulate migration
- inhibition of chemotaxis with respect to the control (HaCaT keratinocytes [3]): 10–20%

Reference: PMC7355430, “Imunofan—RDKVYR Peptide—Stimulates Skin Cell Proliferation and Promotes Tissue Repair” (Molecules, 2020)
